Experimental data from US20160271097A1, “FORMULATION OF OLOPATADINE” (NEPHRON PHARMACEUTICALS CORPORATION, priority 2013, published 2016).

Assay: Dissolution of olopatadine in the formulation (minimum PVA)
Assay type: physicochemical
Settings: Olopatadine about 2.0 mg/mL
Description: Initial experiments were conducted to examine the possible concentration ranges for the organic modifiers which would initially solubilize Olopatadine during formulation and maintain the solution stability such that no crystallization of the drug product would occur. An experiment was carried out to determine the minimum amount of PVA needed to obtain the total dissolution of Olopatadine in the formulation. The minimum amount of PVA determined to be effective in solubilizing the drug substance during formulation and which prevented crystal growth in the drug product was 0.5%. Concentrations of such PVA below 0.5% are insufficient to permit dissolution of Olopatadine concentrations of about 2.0 mg/mL. Concentrations at or […] were susceptible to the drug substance starting to dissolve but then precipitating back out of solution during formulation.

Minimum amount of PVA effective in solubilizing the drug substance and preventing crystal growth: 0.5%
Compound: CN(C)CC/C=C1/c2ccccc2COc2ccc(CC(=O)O)cc21 [Olopatadine, {(11Z)-11-[3-(dimethylamino)propylidene]-6,11-dihydrodibenzo[b,e]oxepin-2-yl} acetic acid]
